Laboratory results from patent publication US6274715A, “Tricyclic erythromycin derivatives” (priority 1997, dated 2001).
Converted amounts (≈) assume the structure as drawn.

Legend:
Type in all cases: cell-based
[1] = test system: STAPHYLOCOCCUS AUREUS ATCC 6538P; assay: In vitro antibacterial activity, MIC, BHI agar dilution; conditions: S. aureus ATCC 6538P, 35-37° C., 20 to 24 hours, unit assumed
[2] = test system: STAPHYLOCOCCUS AUREUS A5177; assay: as above
[3] = test system: STAPHYLOCOCCUS AUREUS A-5278; assay: as above; conditions: S. aureus A-5278, unit assumed
[4] = test system: STAPHYLOCOCCUS AUREUS CMX 642A; assay: as above; conditions: S. aureus CMX 642A, unit assumed
[5] = test system: STAPHYLOCOCCUS AUREUS NCTC10649M; assay: as above; conditions: S. aureus NCTC10649M, unit assumed
[6] = test system: STAPHYLOCOCCUS AUREUS CMX 553; assay: as above; conditions: S. aureus CMX 553, unit assumed
[7] = test system: STAPHYLOCOCCUS AUREUS 1775; assay: as above; conditions: S. aureus 1775, unit assumed
[8] = test system: STAPHYLOCOCCUS EPIDERMIDIS 3519; conditions: S. epidermidis 3519; BHI agar; unit assumed
EN[…] ATCC 8043 = assay: In vitro antibacterial activity, MIC, BHI agar dilution; conditions: E. faecium ATCC 8043, unit assumed
Method in brief: (§1)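 Twelve successive aqueous dilutions of compound in Brain Heart Infusion agar were inoculated with 1:100 culture dilutions (1:10 for slow growers such as Micrococcus, Streptococcus) by Steers replicator and incubated at 35-37° C for 20 to 24 hours. MIC was the lowest concentration giving no growth, slight haze or sparse colonies versus drug-free control.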

M[…] ATCC 4698 = assay: as above; conditions: M. luteus ATCC 4698, unit assumed
Method in brief: as §1

M[…] ATCC 9341 = assay: as above; conditions: M. luteus ATCC 9341, unit assumed
Method in brief: as §1

STR[…] 508 = assay: as above; conditions: S. agalactiae CMX 508, unit assumed
Method in brief: as §1

[9] = test system: STREPTOCOCCUS BOVIS A-5169; assay: as above; conditions: S. bovis A-5169, unit assumed
[10] = test system: STREPTOCOCCUS PYOGENES EES61; assay: as above; conditions: S. pyogenes EES61, unit assumed
[11] = test system: STREPTOCOCCUS PYOGENES 930; assay: as above; conditions: S. pyogenes 930, unit assumed
ESCHERICHIA COLI JUHL = conditions: E. coli JUHL; BHI agar; unit assumed
ESCHERICHIA COLI SS = assay: In vitro antibacterial activity, MIC, BHI agar dilution; conditions: E. coli SS, unit assumed
ESCHERICHIA COLI DC-2 = assay: as above; conditions: E. coli DC-2, unit assumed
ESCHERICHIA COLI H560 = assay: as above; conditions: E. coli H560, unit assumed
ESCHERICHIA COLI KNK 437 = conditions: E. coli KNK 437; BHI agar; unit assumed
[12] = test system: ENTEROBACTER AEROGENES ATCC 13048; assay: In vitro antibacterial activity, MIC, BHI agar dilution; conditions: E. aerogenes ATCC 13048, unit assumed
[13] = test system: KLEBSIELLA PNEUMONIAE ATCC 8045; assay: as above; conditions: K. pneumoniae ATCC 8045, unit assumed
[14] = test system: PROVIDENCIA STUARTII CMX 640; conditions: P. stuartii CMX 640; BHI agar; unit assumed
[15] = test system: PSEUDOMONAS AERUGINOSA BMH10; assay: In vitro antibacterial activity, MIC, BHI agar dilution; conditions: P. aeruginosa BMH10, unit assumed
[16] = test system: PSEUDOMONAS AERUGINOSA 5007; assay: as above; conditions: P. aeruginosa 5007, unit assumed
[17] = test system: PSEUDOMONAS AERUGINOSA K799/WT; assay: as above; conditions: P. aeruginosa K799/WT, unit assumed
[18] = test system: PSEUDOMONAS AERUGINOSA K799/61; assay: as above; conditions: P. aeruginosa K799/61, unit assumed
PSEUDOMONAS CEPACIA 296I = assay: as above; conditions: P. cepacia 296I, unit assumed
[19] = test system: ACINETOBACTER CALCOACETICUS CMX 669; assay: as above; conditions: A. calcoaceticus CMX 669, unit assumed
[20] = test system: PSEUDOMONAS AERUGINOSA DPHD-5263; assay: as above; conditions: P. aeruginosa DPHD-5263, unit assumed
[21] = test system: PSEUDOMONAS AERUGINOSA DPHD-2862; assay: as above; conditions: P. aeruginosa DPHD-2862, unit assumed
CANDIDA ALBICANS CCH 442 = assay: as above; conditions: C. albicans CCH 442, unit assumed
[22] = test system: MYCOBACTERIUM SMEGMATIS ATCC 114; assay: as above; conditions: M. smegmatis ATCC 114, unit assumed
[23] = test system: STREPTOCOCCUS PYOGENES PIU 2548; assay: as above; conditions: S. pyogenes PIU 2548, unit assumed

SMILES	MIC [1] [µg/mL]	MIC [3] [µg/mL]	MIC [4] [µg/mL]	MIC [5] [µg/mL]	MIC [6] [µg/mL]	MIC [7] [µg/mL]	MIC [8] [µg/mL]	MIC (EN[…] ATCC 8043) [µg/mL]	MIC (M[…] ATCC 4698) [µg/mL]	MIC (M[…] ATCC 9341) [µg/mL]	MIC (STR[…] 508) [µg/mL]	MIC [9] [µg/mL]	MIC (ESCHERICHIA COLI JUHL) [µg/mL]	MIC (ESCHERICHIA COLI DC-2) [µg/mL]	MIC (ESCHERICHIA COLI H560) [µg/mL]	MIC (ESCHERICHIA COLI KNK 437) [µg/mL]	MIC [12] [µg/mL]	MIC [13] [µg/mL]	MIC [14] [µg/mL]	MIC [15] [µg/mL]	further results
CCC1OC(=O)C(C)C(=O)C(C)C(OC2OC(C)CC(N(C)C)C2O)C(C)(OC)CC(C)C2=NC(CN)CN3C(=O)OC1(C)C3C2C (stereo not shown) [Example 16]	0.2 (≈ 0.3 µM)	> 100	0.2 (≈ 0.3 µM)	0.2 (≈ 0.3 µM)	0.39 (≈ 0.585 µM)	> 100	0.2 (≈ 0.3 µM)	0.2 (≈ 0.3 µM)	0.2 (≈ 0.3 µM)	0.02 (≈ 0.03 µM)	0.05 (≈ 0.075 µM)	0.02 (≈ 0.03 µM)	12.5 (≈ 18.7 µM)	12.5 (≈ 18.7 µM)	6.2 (≈ 9.3 µM)	12.5 (≈ 18.7 µM)	12.5 (≈ 18.7 µM)	12.5 (≈ 18.7 µM)	> 100	50 (≈ 75 µM)	MIC ([2]; S. aureus A5177, unit assumed): 0.39 µg/mL (≈ 0.585 µM); MIC [10]: 0.01 µg/mL (≈ 0.015 µM); MIC [11]: > 100 µg/mL; MIC (ESCHERICHIA COLI SS): 0.1 µg/mL (≈ 0.15 µM); MIC [16]: > 100 µg/mL; MIC [17]: 100 µg/mL (≈ 150 µM); MIC [18]: 0.39 µg/mL (≈ 0.585 µM); MIC (PSEUDOMONAS CEPACIA 296I): > 100 µg/mL; MIC [19]: 12.5 µg/mL (≈ 18.7 µM); MIC [20]: > 100 µg/mL; MIC [21]: > 100 µg/mL; MIC (CANDIDA ALBICANS CCH 442): > 100 µg/mL; MIC [22]: 1.56 µg/mL (≈ 2.34 µM)
CC[C@H]1OC(=O)[C@H](C)C(=O)[C@H](C)[C@@H](O[C@@H]2O[C@H](C)C[C@H](N(C)C)[C@H]2O)[C@](C)(OC)C[C@@H](C)C2=N[C@H](COCc3ccc(C#N)cc3)CN3C(=O)O[C@@]1(C)[C@H]3[C@H]2C [Example 74]	0.2 (≈ 0.255 µM)	> 100	0.2 (≈ 0.255 µM)	0.1 (≈ 0.128 µM)	0.1 (≈ 0.128 µM)	> 100	0.2 (≈ 0.255 µM)	0.02 (≈ 0.0255 µM)	0.39 (≈ 0.498 µM)	0.02 (≈ 0.0255 µM)	0.02 (≈ 0.0255 µM)	≤ 0.005	> 100	100 (≈ 128 µM)	100 (≈ 128 µM)	> 100	> 100	> 100	> 100	> 100	MIC ([2]; S. aureus A5177): 0.1 µg/mL (≈ 0.128 µM); MIC [10]: ≤ 0.005 µg/mL; MIC [11]: > 100 µg/mL; MIC (ESCHERICHIA COLI SS): 0.39 µg/mL (≈ 0.498 µM); MIC [16]: > 100 µg/mL; MIC [17]: 100 µg/mL (≈ 128 µM); MIC [18]: 3.1 µg/mL (≈ 3.96 µM); MIC (PSEUDOMONAS CEPACIA 296I): 50 µg/mL (≈ 63.9 µM); MIC [19]: 50 µg/mL (≈ 63.9 µM); MIC [20]: > 100 µg/mL; MIC [21]: > 100 µg/mL; MIC (CANDIDA ALBICANS CCH 442): > 100 µg/mL; MIC [22]: 0.39 µg/mL (≈ 0.498 µM)
CC[C@H]1OC(=O)[C@H](C)C(=O)[C@H](C)[C@@H](O[C@@H]2O[C@H](C)C[C@H](N(C)C)[C@H]2O)[C@](C)(OC)C[C@@H](C)C2=N[C@H](COCc3ccccc3)CN3C(=O)O[C@@]1(C)[C@H]3[C@H]2C [Example 88]	0.39 (≈ 0.515 µM)	> 100	0.39 (≈ 0.515 µM)	0.2 (≈ 0.264 µM)	0.2 (≈ 0.264 µM)	> 100	0.39 (≈ 0.515 µM)	0.2 (≈ 0.264 µM)	0.2 (≈ 0.264 µM)	0.1 (≈ 0.132 µM)	0.05 (≈ 0.066 µM)	0.02 (≈ 0.0264 µM)	> 100	> 100	100 (≈ 132 µM)	> 100	> 100	> 100	> 100	> 100	MIC ([2]; S. aureus A5177, unit assumed): 0.2 µg/mL (≈ 0.264 µM); MIC [10]: ≤ 0.005 µg/mL; MIC (ESCHERICHIA COLI SS): 1.56 µg/mL (≈ 2.06 µM); MIC [16]: > 100 µg/mL; MIC [17]: > 100 µg/mL; MIC [18]: 6.2 µg/mL (≈ 8.18 µM); MIC (PSEUDOMONAS CEPACIA 296I): 100 µg/mL (≈ 132 µM); MIC [19]: 100 µg/mL (≈ 132 µM); MIC [20]: > 100 µg/mL; MIC [21]: > 100 µg/mL; MIC (CANDIDA ALBICANS CCH 442): > 100 µg/mL; MIC [22]: 0.39 µg/mL (≈ 0.515 µM)
C#CCN1CC2N=C3[C@H](C)C[C@@](C)(OC)[C@H](O[C@@H]4O[C@H](C)C[C@H](N(C)C)[C@H]4O)[C@@H](C)C(=O)[C@@H](C)C(=O)O[C@H](CC)[C@@]4(C)OC(=O)N(C2C1)[C@@H]4[C@H]3C (stereo partly shown) [Example 117]	0.78 (≈ 1.09 µM)	> 100	0.78 (≈ 1.09 µM)	0.78 (≈ 1.09 µM)	0.78 (≈ 1.09 µM)	> 100	1.56 (≈ 2.18 µM)	0.2 (≈ 0.279 µM)	0.39 (≈ 0.544 µM)	0.2 (≈ 0.279 µM)	0.05 (≈ 0.0697 µM)	0.05 (≈ 0.0697 µM)	> 100	> 100	50 (≈ 69.7 µM)	> 100	> 100	> 100	> 100	> 100	MIC ([2]; S. aureus A5177, unit assumed): 0.78 µg/mL (≈ 1.09 µM); MIC [11]: > 100 µg/mL; MIC [23]: 0.78 µg/mL (≈ 1.09 µM); MIC [16]: > 100 µg/mL; MIC [17]: > 100 µg/mL; MIC [18]: 3.1 µg/mL (≈ 4.32 µM); MIC (PSEUDOMONAS CEPACIA 296I): > 100 µg/mL; MIC [19]: > 100 µg/mL; MIC [20]: > 100 µg/mL; MIC [21]: > 100 µg/mL; MIC (CANDIDA ALBICANS CCH 442): > 100 µg/mL; MIC [22]: 3.1 µg/mL (≈ 4.32 µM)
